Data: PubChem BioAssay (NCI)
Values joined by “and” are separate entries in the source; they are usually repeats but may differ in a detail not shown here. Identical values can stand only once.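 Five concentrations, 48 hours, 96-well plates. GI50 marks 50% less growth. The concentration for full growth arrest is given as TGI.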 Where a SMILES comes first, the peptide text is derived from it. Bridges are numbered along the chain shown (N, C = ends). [ ]: non-standard residue; d: D form. The star is where a group is joined. ξ: configuration not given here. X26 = O=C(/C=C/C=C/C=C/C=C/C=C/C(=O)*)NC1=C(O)CCC1=O; NMeA = CN[C@@H](C)C(=O)O; ξF = NC(Cc1ccccc1)C(=O)O; ξA = CC(N)C(=O)O

Experiments:
Assay in all cases: NCI anticancer screen, dose series, 48 h
[1] = tested on: HCC-2998 colon
[2] = tested on: MCF7 breast
[3] = tested on: U251 CNS
[4] = tested on: OVCAR-3 ovarian
[5] = tested on: HS 578T breast
[6] = tested on: HOP-62 NSCLC
[7] = tested on: SNB-19 CNS
[8] = tested on: NCI-H23 lung
[9] = tested on: DU-145 prostate
[10] = tested on: RPMI-8226 leukemia
[11] = tested on: MDA-N
[12] = tested on: BT-549 breast
[13] = tested on: A498 renal
[14] = tested on: SK-OV-3 ovarian
[15] = tested on: UACC-257 melanoma
[16] = tested on: A549 NSCLC
[17] = tested on: HOP-92 NSCLC
[18] = tested on: OVCAR-8 ovarian
[19] = tested on: HL-60(TB) leukemia

| SMILES | TGI [1] | TGI [2] [µM] | TGI [3] [µM] | TGI [4] [µM] | TGI [5] [µM] | TGI [6] [µM] | TGI [7] [µM] | TGI [8] [µM] | TGI [9] [µM] | TGI [10] [µM] | TGI [11] [µM] | TGI [12] [µM] | TGI [13] [µM] | TGI [14] [µM] | TGI [15] [µM] | TGI [16] [µM] | TGI [17] [µM] | TGI [18] | TGI [19] [µM] | GI50 [17] |
| --- | --- | --- | --- | --- | --- | --- | --- | --- | --- | --- | --- | --- | --- | --- | --- | --- | --- | --- | --- | --- |
| Cc1cc2c([N+](=O)[O-])cc3c(c2o1)C(=O)C=CC3=O | > 57.8 µM | 11.2 | 33.1 | 19 | 54.8 | 34.1 | 30.9 | 34.9 | > 52.3 | > 100 | 28 | 30.4 | 29.5 | > 80.1 | 7.23 | 37.2 | 3.22 | > 55.7 µM | – | – |
| CN(Cc1ccccc1)c1cc(=O)n(C)c(=O)[nH]1 | > 100 µM | > 100 | > 100 | > 100 | > 100 | – | > 100 | > 100 | > 100 | > 100 | > 100 | > 100 | > 100 | > 100 | > 100 | > 100 | > 100 | > 100 µM | > 100 | – |
| CC(=O)Oc1cc(C(F)(F)F)ccc1C(=O)OC1(C)OC(=O)c2ccc(C(F)(F)F)cc2O1 (stereo not drawn) | > 100 µM | > 100 | > 100 | > 100 | – | > 100 | > 100 | > 100 | > 100 | – | > 100 | > 100 | > 100 | > 100 | > 100 | > 100 | > 100 | > 100 µM | > 100 | – |
| COc1cc2c(cc1OC)[C@H]1CN3CCC[C@H]3C=C1c1ccc(OC)c(O)c1-2 | 0.0149 µM and 0.0736 µM | – | 1.25 | – | 0.00677 | – | – | 0.00184 | 0.162 | 0.0012 | 0.112 | 0.206 | – | 0.000342 | 0.00835 | – | 0.000382 | 0.0015 µM and 0.0123 µM | – | – |
| CC1NC(=O)[C@H](C)N(C)C(=O)[C@@H]2CCCN2C(=O)[C@@H](NC(=O)C(Cc2ccccc2)NC(=O)/C=C/C=C/C=C/C=C/C=C/C(=O)NC2=C(O)CCC2=O)COC(=O)[C@@H]2CCCN2C1=O (stereo partly drawn) (X26-[ξF]SP[NMeA][ξA]P; ester 2-C) | > 100 µM | > 100 | > 100 | > 100 | > 100 | > 100 | > 100 | > 100 | > 100 | > 100 | > 100 | > 100 | – | > 100 | > 100 | > 100 | > 100 | – | > 100 | – |
| Oc1[nH]c2ccc(Br)cc2c1N=NC(=S)Nc1ccc(F)cc1 | – | 24.7 | 18.5 | 29 | 63.6 | 60.5 | – | 6.96 | 22.3 | – | 14.4 | 2.7 | 8.76 | 33.4 | 43 | – | 16.3 | 19.9 µM | 6.84 | – |
| O=c1[nH]cnc2c1ncn2[C@@H]1C[C@@H]1CO | > 100 µM | > 100 | > 100 | – | > 100 | > 100 | > 100 | > 100 | > 100 | – | > 100 | > 100 | – | – | > 100 | > 100 | > 100 | > 100 µM | > 100 | – |
| C(=Nc1ccc(-c2nc3ccccc3o2)cc1)c1ccco1 | – | > 100 | – | – | – | – | > 100 | > 100 | > 100 | 36.9 | > 100 | > 100 | 95 | – | > 100 | – | > 100 | > 100 µM | – | – |
| COc1nc2ncc([C@@H](OC(C)=O)[C@@H](COC(C)=O)OC(C)=O)nc2c(=O)[nH]1 | – | > 100 | > 100 | > 100 | > 100 | > 100 | > 100 | – | > 100 | > 100 | > 100 | > 100 | > 100 | > 100 | > 100 | > 100 | > 100 | > 100 µM | > 100 | > 100 µM and 32.8 µM |
| CCCCNC(=S)N/N=C/c1cccc(C)n1 | – | > 100 | > 100 | > 100 | > 100 | 55.2 | > 100 | > 100 | > 100 | > 100 | > 100 | > 100 | > 100 | > 100 | > 100 | > 100 | 86.7 | > 100 µM | > 100 | – |
| O=C(Nc1ccccc1F)c1cc2ccc(O)cc2oc1=Nc1ccccc1F | 8.04 µM | 11.3 | 3.63 | 3.83 | 5.03 | 4.31 | 18.6 | 4.52 | 3.75 | 7.84 | 5.27 | 6.95 | – | 42.1 | 10.1 | 5.89 | – | 3.36 µM | 4.54 | – |
| NC(CC1=CS(=O)(=O)c2ccc(Cl)cc21)C(=O)O (stereo not drawn) | – | > 100 | > 100 | > 100 | > 100 | > 100 | > 100 | > 100 | > 100 | > 100 | > 100 | > 100 | > 100 | > 100 | > 100 | > 100 | > 100 | > 100 µM | – | – |
| N/C(=N\S(=O)(=O)c1c(C(F)(F)F)cccc1C(F)(F)F)Nc1ccc(Cl)cc1 | – | > 100 | 36 | > 100 | 68.6 | > 100 | > 100 | 30.8 | > 100 | > 100 | > 100 | 96 | 50.6 | > 100 | 47.7 | > 100 | 43.6 | 78 µM | 51.9 | – |
| Cc1cc(-c2nc3ccccc3s2)ccc1NC(=O)[C@@H](N)CCCCN | 24.5 µM | 11.7 | 9.88 | 26.3 | 45.3 | 25.9 | 29.4 | 17.5 | 25.2 | – | 9.75 | 24.1 | 19.2 | 27.2 | 37.8 | 12.7 | 33.3 | 17.1 µM | – | – |
